These results are taken from the supplement of paper PMC8967900.
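Note: ALL cell lines in 384-well plates, five doses spanning 10,000-fold, each plate scaled between vehicle and 100 µmol/L benzalkonium chloride controls, sDSS an adapted area-under-curve metric.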

In one assay the test system is PEER. The experiment in a line: selective drug sensitivity score (sDSS, relative to normal bone marrow) (sDSS (score)); higher = more potent and effective on the cell line relative to normal bone marrow cells. As to conditions: 72 h.
Take `CNC(=O)c1ccc(C)c(-n2c(C)cc(OCc3ccc(F)cc3F)c(Br)c2=O)c1` (top concentration 1000 nM): the “selective drug sensitivity score” value came to 0.

As to `CONC(=O)c1ccccc1Nc1cc(Nc2cc(C)nn2C(C)C)ncc1Cl` (top concentration 1000 nM), the “selective drug sensitivity score” value is -0.94.

For the compound `CCOc1ccn(-c2ccc(F)cc2)c(=O)c1C(=O)Nc1ccc(Oc2ccnc(N)c2Cl)c(F)c1` (top concentration 2500 nM), the “selective drug sensitivity score” value amounted to 3.9.

Consider `CC[C@@H]1[C@H](F)C(=O)N[C@@H]1COc1nccc2cc(C(N)=O)c(OC)cc12` (top concentration 10000 nM), for which the “selective drug sensitivity score” value stood at 1.08.

With `C[C@H]1C[C@@H](n2c(Nc3ccc(OC(F)(F)F)cc3)nc3cc(CCC(=O)O)ccc32)CC(C)(C)C1` (top concentration 10000 nM), the “selective drug sensitivity score” value was 2.16.

Take `O=C(NCc1ccncc1)C12CC3CC(C1)CC(c1ccc(Cl)cc1)(C3)C2` (top concentration 50000 nM): the “selective drug sensitivity score” value worked out at 2.88.

Turning to `O=C(O)c1ccc(CN2CCC(CN[C@@H]3C[C@H]3c3ccccc3)CC2)cc1` (top concentration 100000 nM), the “selective drug sensitivity score” value is -0.22.

With `COc1cc(N2CCN(C)CC2)ccc1Nc1nccc(-c2cn(C)c3cnccc23)n1` [AZ191] (top concentration 10000 nM), the “selective drug sensitivity score” value was -1.92.

With `Cc1cc(Nc2nc(N[C@@H](C)c3ncc(F)cn3)ncc2Cl)[nH]n1` [AZD1480] (top concentration 1000 nM), the “selective drug sensitivity score” value was -3.48.

On to `COc1cc(CCc2cc(NC(=O)c3ccc(N4CC(C)NC(C)C4)cc3)n[nH]2)cc(OC)c1` (stereo not given) [AZD4547] (top concentration 1000 nM), for which the “selective drug sensitivity score” value is -0.14.

`CN(C)C(=O)c1ccc(S(=O)(=O)c2ccc(NC(=O)[C@@](C)(O)C(F)(F)F)c(Cl)c2)cc1` [AZD7545] (top concentration 10000 nM): the “selective drug sensitivity score” value worked out at 6.2.

Take `COc1cc(C)c(/C=C/C(C)=C/C=C/C(C)=C/C(=O)O)c(C)c1C` [Acitretin] (top concentration 10000 nM): the “selective drug sensitivity score” value was -0.6.

For `CCC1(c2ccc(N)cc2)CCC(=O)NC1=O` (stereo not given) [Aminoglutethimide] (top concentration 10000 nM), the “selective drug sensitivity score” value was determined as 0.

`CNC(=O)c1ccc(N2C(=S)N(c3cnc(C#N)c(C(F)(F)F)c3)C(=O)C23CCC3)cc1F` [Apalutamide] (top concentration 10000 nM): the “selective drug sensitivity score” value was 0.1.

As to `N#CC1(c2ccc(NC(=O)c3cccnc3NCc3ccncc3)cc2)CCCC1` [Apatinib] (top concentration 10000 nM), the “selective drug sensitivity score” value came out at 2.2.

As for `Cc1nc2cccc(N)c2c(=O)n1C1CCC(=O)NC1=O` (stereo not given) [Avadomide (CC122)] (top concentration 10000 nM), the “selective drug sensitivity score” value came to 0.

With `Nc1nc(Nc2ccc3c(c2)CC[C@@H](N2CCCC2)CC3)nn1-c1cc2c(nn1)-c1ccccc1CCC2` [BGB324] (top concentration 10000 nM), the “selective drug sensitivity score” value was determined as 4.42.

For `CC1(C)C(C(=O)Nc2ccc(S(=O)(=O)c3ccc(NC(=O)C4C(C)(C)C4(C)C)cc3)cc2)C1(C)C` [BRD7116] (top concentration 10000 nM), the “selective drug sensitivity score” value is -0.14.

The test system of a further assay is REH. Described as above. As to conditions: 72 h.
Consider `CNC(=O)c1ccc(C)c(-n2c(C)cc(OCc3ccc(F)cc3F)c(Br)c2=O)c1` (top concentration 1000 nM), for which the “selective drug sensitivity score” value amounted to 4.

For `CONC(=O)c1ccccc1Nc1cc(Nc2cc(C)nn2C(C)C)ncc1Cl` (top concentration 1000 nM), the “selective drug sensitivity score” value was -0.94.

In the case of `CCOc1ccn(-c2ccc(F)cc2)c(=O)c1C(=O)Nc1ccc(Oc2ccnc(N)c2Cl)c(F)c1` (top concentration 2500 nM), the “selective drug sensitivity score” value came to 1.3.

Turning to `CC[C@@H]1[C@H](F)C(=O)N[C@@H]1COc1nccc2cc(C(N)=O)c(OC)cc12` (top concentration 10000 nM), the “selective drug sensitivity score” value is -1.32.

For `C[C@H]1C[C@@H](n2c(Nc3ccc(OC(F)(F)F)cc3)nc3cc(CCC(=O)O)ccc32)CC(C)(C)C1` (top concentration 10000 nM), the “selective drug sensitivity score” value was determined as 0.36.

On to `O=C(NCc1ccncc1)C12CC3CC(C1)CC(c1ccc(Cl)cc1)(C3)C2` (top concentration 50000 nM), for which the “selective drug sensitivity score” value turned out to be 5.18.

For the compound `O=C(O)c1ccc(CN2CCC(CN[C@@H]3C[C@H]3c3ccccc3)CC2)cc1` (top concentration 100000 nM), the “selective drug sensitivity score” value is -0.22.

Regarding `COc1cc(N2CCN(C)CC2)ccc1Nc1nccc(-c2cn(C)c3cnccc23)n1` [AZ191] (top concentration 10000 nM), the “selective drug sensitivity score” value is 0.48.

On to `Cc1cc(Nc2nc(N[C@@H](C)c3ncc(F)cn3)ncc2Cl)[nH]n1` [AZD1480] (top concentration 1000 nM), for which the “selective drug sensitivity score” value is -4.08.

Turning to `COc1cc(CCc2cc(NC(=O)c3ccc(N4CC(C)NC(C)C4)cc3)n[nH]2)cc(OC)c1` (stereo not given) [AZD4547] (top concentration 1000 nM), the “selective drug sensitivity score” value is -0.14.

With `CN(C)C(=O)c1ccc(S(=O)(=O)c2ccc(NC(=O)[C@@](C)(O)C(F)(F)F)c(Cl)c2)cc1` [AZD7545] (top concentration 10000 nM), the “selective drug sensitivity score” value stood at 4.4.

Consider `COc1cc(C)c(/C=C/C(C)=C/C=C/C(C)=C/C(=O)O)c(C)c1C` [Acitretin] (top concentration 10000 nM), for which the “selective drug sensitivity score” value is -1.6.

For `CCC1(c2ccc(N)cc2)CCC(=O)NC1=O` (stereo not given) [Aminoglutethimide] (top concentration 10000 nM), the “selective drug sensitivity score” value is 0.6.

In the case of `CNC(=O)c1ccc(N2C(=S)N(c3cnc(C#N)c(C(F)(F)F)c3)C(=O)C23CCC3)cc1F` [Apalutamide] (top concentration 10000 nM), the “selective drug sensitivity score” value is 0.

With `N#CC1(c2ccc(NC(=O)c3cccnc3NCc3ccncc3)cc2)CCCC1` [Apatinib] (top concentration 10000 nM), the “selective drug sensitivity score” value is 0.1.

As for `Cc1nc2cccc(N)c2c(=O)n1C1CCC(=O)NC1=O` (stereo not given) [Avadomide (CC122)] (top concentration 10000 nM), the “selective drug sensitivity score” value came out at 3.6.

Turning to `Nc1nc(Nc2ccc3c(c2)CC[C@@H](N2CCCC2)CC3)nn1-c1cc2c(nn1)-c1ccccc1CCC2` [BGB324] (top concentration 10000 nM), the “selective drug sensitivity score” value worked out at 0.92.

Take `CC1(C)C(C(=O)Nc2ccc(S(=O)(=O)c3ccc(NC(=O)C4C(C)(C)C4(C)C)cc3)cc2)C1(C)C` [BRD7116] (top concentration 10000 nM): the “selective drug sensitivity score” value was determined as 2.86.

A further assay relates to RPMI-8402. The description is as above. As to conditions: 72 h.
On to `CNC(=O)c1ccc(C)c(-n2c(C)cc(OCc3ccc(F)cc3F)c(Br)c2=O)c1` (top concentration 1000 nM), for which the “selective drug sensitivity score” value stood at 0.

Take `CONC(=O)c1ccccc1Nc1cc(Nc2cc(C)nn2C(C)C)ncc1Cl` (top concentration 1000 nM): the “selective drug sensitivity score” value is -0.94.

Turning to `CCOc1ccn(-c2ccc(F)cc2)c(=O)c1C(=O)Nc1ccc(Oc2ccnc(N)c2Cl)c(F)c1` (top concentration 2500 nM), the “selective drug sensitivity score” value was found to be 0.4.

`CC[C@@H]1[C@H](F)C(=O)N[C@@H]1COc1nccc2cc(C(N)=O)c(OC)cc12` (top concentration 10000 nM): the “selective drug sensitivity score” value is 1.38.

In the case of `C[C@H]1C[C@@H](n2c(Nc3ccc(OC(F)(F)F)cc3)nc3cc(CCC(=O)O)ccc32)CC(C)(C)C1` (top concentration 10000 nM), the “selective drug sensitivity score” value was 1.46.

`O=C(NCc1ccncc1)C12CC3CC(C1)CC(c1ccc(Cl)cc1)(C3)C2` (top concentration 50000 nM): the “selective drug sensitivity score” value came to 2.68.

Consider `O=C(O)c1ccc(CN2CCC(CN[C@@H]3C[C@H]3c3ccccc3)CC2)cc1` (top concentration 100000 nM), for which the “selective drug sensitivity score” value was -0.22.

On to `COc1cc(N2CCN(C)CC2)ccc1Nc1nccc(-c2cn(C)c3cnccc23)n1` [AZ191] (top concentration 10000 nM), for which the “selective drug sensitivity score” value was 0.18.

`Cc1cc(Nc2nc(N[C@@H](C)c3ncc(F)cn3)ncc2Cl)[nH]n1` [AZD1480] (top concentration 1000 nM): the “selective drug sensitivity score” value was -3.18.
